Test results as given in patent US20040133938A1, “Use of lipoic acid in plant culture media” (priority 2002, published 2004).

System: MicroTom cotyledon explants
Assay: MicroTom Agrobacterium transformation: shoot regeneration, transformation efficiency, escapes
Type: cell-based, Lycopersicon esculentum
Conditions: for % of explants producing shoots (>1 cm in length): selection medium; for % of shoots that were escapes (did not root on selection medium): kanamycin selection
Experimental: This example describes the use of lipoic acid in an Agrobacterium-based tomato transformation process. MicroTom (a cultivar of tomato species: Lycopersicon esculentum) seeds from Tomato Growers (Ball Seed Co., West Chicago, Ill. USA) were surface-sterilized by first soaking for 10 min in sterile deionized water, removing the water, and then adding enough 70% ethanol to immerse the seeds for 1 min while stirring vigorously and then aspirating the ethanol. The seeds were rinsed 2× with sterile deionized water and then soaked in 25% Chlorox with 1-2 drops of Tween 20 for 10 min while stirring frequently. The seeds were rinsed 3× with sterile deionized water. The seeds were germinated in phytatrays containing Davis Germination medium (4.3 g/L MS salts, 2 ml/L Gamborg's B-5 500× salts, 20 g/L sucrose and 10 g/L agar) (approximately 120 seeds/container), and the phytatrays were wrapped with aluminum foil. The phytatray cultures were maintained at 28° C. under the dark for 5 days. After 5 days, the phytatray cultures were unwrapped and grown at 24° C. under a 16 h photoperiod for about 44 h.
Agrobacterium containing the desired transformation vector with a selectable marker (nptII for kanamycin selection as shown in FIG. 1) was streaked on a fresh LBssck plate (LB, 200 mL; spectinomycin (50 mg/mL stock), 200 μL; streptomycin (50 mg/mL stock), 200 μL; kanamycin (50 mg/mL stock), 200 μL; chloramphenicol (CAP, 25 mg/mL stock), 200 μL) from a frozen glycerol stock, and grown at about 28° C. for 3-4 days. One day before inoculation, a loopful of the bacterium cells from the freshly streaked plate was inoculated into 2 mL of LB+(LB, 200 mL; spectinomycin or streptomycin (50 mg/mL stock), 400 μL; kanamycin (50 mg/mL stock), 200 μL; chloramphenicol (CAP, 25 mg/mL stock), 200 μL) without acetosyringone, and grown at about 28° C. on a rotator at the speed between medium to high overnight. Then, 0.2 mL of the overnight bacterium culture was inoculated into 2 mL of LB+0.2 mM acetosyringone, and grown at about 28° C. on a rotator at the speed between medium to high for 4 hours.
Four hours after the sub-culture, the bacterium growth phase was measured using the spectrophotometer. The final O.D.660 of the bacterium culture was between about 0.9 and 1.4. The bacterium culture was diluted by adding the bacterium culture to TXD medium in a sterile tube based on the volume to get the working O.D.660=0.1.
Cotyledon explants were isolated from seedlings 7 days after sowing seeds on Davis Germination medium. Cotyledon explants were prepared by bathing them in 6 mL of TXD liquid medium (4.3 g/L MS salts, 2 mL/L Gamborg's B-5 500× salts, 4 mg/L pCPA (p-chlorophenoxyactic acid), 0.005 mg/L kinetin, and 30 g/L sucrose) to prevent desiccation and trimming them at both ends using a #15 feather blade. Immediately after the trimming, the cotyledon explants were gently placed on “feeder plates” containing UC2PC medium (2.2 g/L MS salts, 2.2 mL/L, Gamborg's B-5 500× salts, 0.2 mg/L 2,4-D, 4 mg/L pCPA, 0.1 mg/L kinetin, 30 g/L sucrose, 0.2 g/L potassium phosphate, 10 g/L agar, 8 mL/L acetosyringone (4.91 mg/mL), and 4 mL galacturonic acid (53.05 mg/mL)). The “feeder plates” are made by overlaying 2 mL of tobacco suspension cells and a sterile Whatman filter on the plates containing UC2PC medium. The cotyledon explants were gently poked with a sharp forceps (ASIM5311, Stainless French, made in Switzerland). Usually six to ten pokes were made per explant depending the size of cotyledons. Right after poking, the cotyledons were inoculated with Agrobacterium containing pMON15715 (FIG. 1) by adding 3 mL of the adjusted Agrobacterium solution on top of the cotyledons. The plates were incubated for 10 min at room temperature, and the Agrobacterium solution was aspirated with a sterile pipette. The cotyledons were then co-cultured for 2 days at 23-24° C. under a 16-h photoperiod. […]

O=C(O)CCCCC1CCSS1 (stereo not drawn) [lipoic acid, 1,2-dithiolane-3-pentanoic acid] was tested, and the “% of explants producing shoots (>1 cm in length)” value (“% of explants producing shoots” below) (5 μM lipoic acid, 45 explants) was 68.9%, the “% of resp. explant producing transgenic plants” value (5 μM lipoic acid, MicroTom) was 78.6% and the “% of transgenic plants/shoot” value (5 μM lipoic acid, MicroTom) was 43.9%. For the same compound, the “Efficiency (stable transformation efficiency, percentage of transgenic plants produced per explant)” value (5 μM lipoic acid, MicroTom) was 155.1%, the “No. of total shoots produced/explant” value (5 μM lipoic acid, MicroTom) was 3.53 and the “No. of total shoots produced/resp. explant” value (5 μM lipoic acid, MicroTom) was 4.93. For the same compound, the “No. of transgenic plants produced/resp. explant” value (5 μM lipoic acid, MicroTom) was 2.25, the “TE (percentage of transgenic events produced per explant)” value (5 μM lipoic acid, MicroTom) was 78.3% and the “% of shoots that were escapes (did not root on selection medium)” value (5 μM lipoic acid) was 54.6%. The “% of explants producing shoots” value (10 μM lipoic acid, 46 explants) was 67.4%, the “% of resp. explant producing transgenic plants” value (10 μM lipoic acid, MicroTom) was 74.2% and the “% of transgenic plants/shoot” value (10 μM lipoic acid, MicroTom) was 42.9%. For the same compound, the “Efficiency (stable transformation efficiency, percentage of transgenic plants produced per explant)” value (10 μM lipoic acid, MicroTom) was 178.7%, the “No. of total shoots produced/explant” value (10 μM lipoic acid, MicroTom) was 4.17 and the “No. of total shoots produced/resp. explant” value (10 μM lipoic acid, MicroTom) was 6.19. The “No. of transgenic plants produced/resp. explant” value (10 μM lipoic acid, MicroTom) was 2.65, the “TE (percentage of transgenic events produced per explant)” value (10 μM lipoic acid, MicroTom) was 94.1% and the “% of shoots that were escapes (did not root on selection medium)” value (10 μM lipoic acid) was 58.3%. The “% of explants producing shoots” value (50 μM lipoic acid, 49 explants) was 61.2%, the “% of resp. explant producing transgenic plants” value (50 μM lipoic acid, MicroTom) was 67.9% and the “% of transgenic plants/shoot” value (50 μM lipoic acid, MicroTom) was 48.0%. For the same compound, the “Efficiency (stable transformation efficiency, percentage of transgenic plants produced per explant)” value (50 μM lipoic acid, MicroTom) was 144.1%, the “No. of total shoots produced/explant” value (50 μM lipoic acid, MicroTom) was 3.00 and the “No. of total shoots produced/resp. explant” value (50 μM lipoic acid, MicroTom) was 4.83. For the same compound, the “No. of transgenic plants produced/resp. explant” value (50 μM lipoic acid, MicroTom) was 2.35, the “TE (percentage of transgenic events produced per explant)” value (50 μM lipoic acid, MicroTom) was 76.4% and the “% of shoots that were escapes (did not root on selection medium)” value (50 μM lipoic acid) was 55.4%. The “% of explants producing shoots” value (100 μM lipoic acid, 43 explants) was 25.6%, the “% of resp. explant producing transgenic plants” value (100 μM lipoic acid, MicroTom) was 93.8% and the “% of transgenic plants/shoot” value (100 μM lipoic acid, MicroTom) was 50.6%. For the same compound, the “Efficiency (stable transformation efficiency, percentage of transgenic plants produced per explant)” value (100 μM lipoic acid, MicroTom) was 112.1%, the “No. of total shoots produced/explant” value (100 μM lipoic acid, MicroTom) was 2.21 and the “No. of total shoots produced/resp. explant” value (100 μM lipoic acid, MicroTom) was 8.64. For the same compound, the “No. of transgenic plants produced/resp. explant” value (100 μM lipoic acid, MicroTom) was 4.38, the “TE (percentage of transgenic events produced per explant)” value (100 μM lipoic acid, MicroTom) was 49.7% and the “% of shoots that were escapes (did not root on selection medium)” value (100 μM lipoic acid) was 57.1%. For the same compound, the “effect on total transgenic and non-transgenic shoot induction” value (lipoic acid from 5 μM to 50 μM) was “no inhibition effect”, the “increase of the stable transformation efficiency” value (summary, MicroTom, from 40%) was 6.5 fold and the stable transformation efficiency (summary, MicroTom, with lipoic acid) was “up to 260%”.
